In US8012957B2, “Tetrahydro-1H-1,2,6-triaza-azulene cannabinoid modulators” (Janssen Pharmaceutica NV, priority 2006, dated 2011):

Experiments:
cannabinoid CB2 receptor = molecular target: T1, cannabinoid CB2 receptor (Homo sapiens, UniProt P34972); assay: Binding assay for CB2, [3H]-CP-55,940 displacement on membranes of transfected SK-N-MC cells; settings: test concentration of 0.2 μM
T1 construct: expressed in transfected cells; host or cells: SK-N-MC cells, pcDNA3 CB-2 (human), semi-purified membrane pellet
Description: (§1) Binding Assay for CB1 or CB2 Agonists or Inverse Agonists
(§2) The human CB1 and CB2 receptors were stably expressed in SK-N-MC cells transfected with pcDNA3 CB-1 (human) or pcDNA3 CB-2 (human). The cells were grown in T-180 cell culture flasks under standard cell culture conditions at 37° C. in a 5% CO2 atmosphere. The cells were harvested by trysinization and homogenized in a homogenization buffer (10 mM Tris, 0.2 mM MgCl2, 5 mM KCl, with protease inhibitors aprotinin, leupeptin, pepstatin A and bacitracin) and centrifuged (2000 g). The supernatant was then centrifuged in 2M sucrose (31,300 g) to produce a semi-purified membrane pellet. The pellet was resuspended in homogenization and stored at −80° C.
(§3) On the day of the assay, the pellet was thawed on ice and diluted in assay buffer (50 mM Tris-HCl, 5 mM MgCl2, 2.5 mM EDTA, 0.5 mg/mL fatty acid free bovine serum albumin, pH 7.5). The diluted membrane pellet was added with buffer, either a test compound or vehicle standard and a the radioligand [H]^3+-CP-55,940 (0.2 nM) to the wells of a 96-well polypropylene plate. Non-specific binding was measured in wells containing WIN 55,212 (10 uM). The plate was covered and incubated for 90 minutes at 30° C. The contents were then aspirated onto a Packard Unifilter GF/C filter bottom plate prewet with 0.5% polyethyleneimine. The wells of the polypropylene plate were rinsed and aspirated seven times with a 0.9% saline-0.5% Tween 20 solution. The Unifilter plate was dried, a scintillation cocktail was added to each well and the counts representing binding were quantitated in a TopCount scintillation counter.
(§4) For compounds tested, an IC50 binding value was obtained from percent inhibition studies in which various test concentrations were used. The binding value (in μM) was calculated by linear regression.
(§5) For those compounds without an IC50 binding value, the percent inhibition (%) was obtained at a test concentration of 0.2 μM.

cannabinoid CB1 receptor = molecular target: T2, cannabinoid CB1 receptor (Homo sapiens, UniProt P21554); assay: Binding assay for CB1, [3H]-CP-55,940 displacement on membranes of transfected SK-N-MC cells; settings: for inhibition at 0.2 µM: test concentration of 0.2 μM, read-out: Cannabinoid CB 1 Receptor Binding Inhibition (%); for IC50: radioligand [3H]-CP-55,940 0.2 nM, calculated by linear regression
T2 construct: expressed in transfected cells; host or cells: SK-N-MC cells, pcDNA3 CB-1 (human), semi-purified membrane pellet
Description: as §1, §2, §3, §4, §5

T1 sequence (P34972 whole entry): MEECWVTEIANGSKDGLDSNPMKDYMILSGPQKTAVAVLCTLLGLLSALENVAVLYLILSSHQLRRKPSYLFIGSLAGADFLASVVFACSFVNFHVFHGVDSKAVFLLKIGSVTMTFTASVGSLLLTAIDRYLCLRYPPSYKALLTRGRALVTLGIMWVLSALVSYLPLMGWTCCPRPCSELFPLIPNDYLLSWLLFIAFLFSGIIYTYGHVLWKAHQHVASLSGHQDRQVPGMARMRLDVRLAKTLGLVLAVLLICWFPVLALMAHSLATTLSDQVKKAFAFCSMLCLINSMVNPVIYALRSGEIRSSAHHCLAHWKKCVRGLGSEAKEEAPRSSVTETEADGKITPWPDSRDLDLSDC
T2 sequence (P21554 whole entry): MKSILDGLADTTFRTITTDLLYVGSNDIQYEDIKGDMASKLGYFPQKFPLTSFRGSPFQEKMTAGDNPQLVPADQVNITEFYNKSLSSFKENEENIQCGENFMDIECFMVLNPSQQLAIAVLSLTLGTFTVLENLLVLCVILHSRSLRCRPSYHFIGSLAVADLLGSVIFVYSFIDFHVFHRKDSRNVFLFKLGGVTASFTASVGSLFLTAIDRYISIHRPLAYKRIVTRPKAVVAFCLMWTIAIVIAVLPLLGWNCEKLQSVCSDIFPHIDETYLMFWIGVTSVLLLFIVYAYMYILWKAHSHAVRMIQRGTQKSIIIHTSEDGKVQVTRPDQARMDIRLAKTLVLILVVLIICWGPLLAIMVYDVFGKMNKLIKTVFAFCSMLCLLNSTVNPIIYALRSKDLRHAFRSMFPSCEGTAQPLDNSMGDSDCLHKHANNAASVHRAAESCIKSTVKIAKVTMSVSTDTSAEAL

Structure (SMILES)	inhibition at 0.2 µM (cannabinoid CB2 receptor)	inhibition at 0.2 µM (cannabinoid CB1 receptor)	IC50 (cannabinoid CB1 receptor)
CC(C)(C)OC(=O)N1CCc2c(C(=O)NN3CCCCC3)nn(-c3ccc(Cl)cc3Cl)c2/C(=C/c2ccc(F)cc2)C1 [Cpd 2, (8E)-1-(2,4-dichloro-phenyl)-8-(4-fluoro-benzylidene)-3-(piperidin-1-ylcarbamoyl)-4,5,7,8-tetrahydro-1H-1,2,6-triaza-azulene-6-carboxylic acid tert-butyl ester]	15%	54%	–
CC(NC(=O)c1nn(-c2ccc(Cl)cc2Cl)c2c1CCN(C(=O)OC(C)(C)C)C/C2=C\c1ccc(F)cc1)c1ccccn1 (stereo not drawn) [Cpd 4, (8E)-1-(2,4-dichloro-phenyl)-8-(4-fluoro-benzylidene)-3-(1-pyridin-2-yl-ethylcarbamoyl)-4,5,7,8-tetrahydro-1 H-1,2,6-triaza-azulene-6-carboxylic acid tert-butyl ester]	14%	–	50 nM
COC(=O)N1CCc2c(C(=O)NN3CCCCC3)nn(-c3ccc(Cl)cc3Cl)c2/C(=C/c2ccc(F)cc2)C1 [Cpd 6, (8E)-1-(2,4-dichloro-phenyl)-8-(4-fluoro-benzylidene)-3-(piperidin-1-ylcarbamoyl)-4,5,7,8-tetrahydro-1H-1,2,6-triaza-azulene-6-carboxylic acid methyl ester]	17%	39%	–
O=C(c1nn(-c2ccc(Cl)cc2Cl)c2c1CCNC/C2=C\c1ccc(F)cc1)N1CCCCC1 [Cpd 5, (8E)-[1-(2,4-dichloro-phenyl)-8-(4-fluoro-benzylidene)-1,4,5,6,7,8-hexahydro-1,2,6-triaza-azulen-3-yl]-piperidin-1-yl-methanone]	10%	16%	–
CC(NC(=O)c1nn(-c2ccc(Cl)cc2Cl)c2c1CCN(C(=O)OC(C)(C)C)C/C2=C\c1ccc(F)cc1)c1ccccc1 (stereo not drawn) [Cpd 3, (8E)-1-(2,4-dichloro-phenyl)-8-(4-fluoro-benzylidene)-3-(1-phenyl-ethylcarbamoyl)-4,5,7,8-tetrahydro-1 H-1,2,6-triaza-azulene-6-carboxylic acid tert-butyl ester]	15%	–	61 nM
CC(C)(C)OC(=O)N1CCc2c(C(=O)N3CCCCC3)nn(-c3ccc(Cl)cc3Cl)c2/C(=C/c2ccc(F)cc2)C1 [Cpd 1, (8E)-1-(2,4-dichloro-phenyl)-8-(4-fluoro-benzylidene)-3-(piperidine-1-carbonyl)-4,5,7,8-tetrahydro-1 H-1,2,6-triaza-azulene-6-carboxylic acid tert-butyl ester]	6%	27%	–
